Results: ChEMBL document CHEMBL1201862, “PubChem BioAssay data set” (2004)
Active and inactive are the calls of the source.

Tests used:
[1] = molecular target: Small ubiquitin-related modifier 2 (Homo sapiens, UniProt P61956); test: disruption of SUMO2 interaction with SIM peptide – biochemical, fluorescence polarization, uHTS hits, selectivity assay for SUMO1 interaction inhibitor project, dose response (AID 624385); format: functional; conditions: read-out: IC50_Mean
[2] = molecular target: Small ubiquitin-related modifier 1 (Homo sapiens, UniProt P63165); test: SUMO1 protein-protein binding blockers, potency – biochemical, FRET, dose response (AID 624383); format: functional; conditions: read-out: IC50_Mean
Protein Tat = molecular target: T1, Protein Tat (Human immunodeficiency virus type 1 group M subtype B (isolate HXB2)(HIV-1), UniProt P04608); format: functional;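 further: tat binding to TAR RNA read out by fluorescence polarization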
T1 sequence (P04608 whole entry): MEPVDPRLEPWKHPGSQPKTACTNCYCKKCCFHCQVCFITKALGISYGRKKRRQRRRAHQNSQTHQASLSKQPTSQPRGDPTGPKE

[3] = molecular target: T2, Rac GTPase-activating protein 1 (Homo sapiens, UniProt Q9H0H5); test: blockers of MgcRacGAP-driven Rac1 GTP hydrolysis – biochemical, ADP Hunter fluorescence, primary and confirmatory, confirmation (AID 624330); format: functional
T2 sequence (Q9H0H5 whole entry): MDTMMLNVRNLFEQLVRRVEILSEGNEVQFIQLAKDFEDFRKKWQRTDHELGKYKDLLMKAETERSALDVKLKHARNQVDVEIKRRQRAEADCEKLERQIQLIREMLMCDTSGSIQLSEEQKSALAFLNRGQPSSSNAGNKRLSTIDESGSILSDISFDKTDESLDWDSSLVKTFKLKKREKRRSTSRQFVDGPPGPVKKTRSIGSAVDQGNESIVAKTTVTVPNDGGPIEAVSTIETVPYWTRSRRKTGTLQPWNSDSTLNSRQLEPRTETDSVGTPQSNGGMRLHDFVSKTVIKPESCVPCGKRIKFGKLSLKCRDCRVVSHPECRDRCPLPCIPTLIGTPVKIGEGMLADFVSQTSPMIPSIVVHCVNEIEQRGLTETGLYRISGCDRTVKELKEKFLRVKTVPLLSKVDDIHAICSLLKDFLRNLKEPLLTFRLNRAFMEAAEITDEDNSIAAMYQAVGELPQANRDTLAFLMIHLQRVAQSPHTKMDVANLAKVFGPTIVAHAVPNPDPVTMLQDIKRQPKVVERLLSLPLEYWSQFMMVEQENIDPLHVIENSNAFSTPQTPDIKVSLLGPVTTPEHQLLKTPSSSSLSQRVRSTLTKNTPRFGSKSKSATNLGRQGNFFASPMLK

[4] = molecular target: UDP-galactopyranose mutase (Mycobacterium tuberculosis, UniProt P9WIQ1); test: Inhibitors of Mycobacterium tuberculosis UDP-galactopyranose mutase (UGM) enzyme Measured in Biochemical System Using Plate Reader - 2105-02_Inhibitor_Dose_CherryPick_Activity. [Related pubchem assays (depositor defined):AID504439]
[5] = molecular target: T3, Type-1 angiotensin II receptor (Homo sapiens, UniProt P30556); test: agonist activity at AGTR1 – cell-based, uHTS hits, selectivity assay for APJ receptor agonist project, dose response (AID 488865); format: functional;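 further: beta-arrestin recruitment to AT1 measured by enzyme fragment complementation luminescence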
T3 sequence (P30556 whole entry): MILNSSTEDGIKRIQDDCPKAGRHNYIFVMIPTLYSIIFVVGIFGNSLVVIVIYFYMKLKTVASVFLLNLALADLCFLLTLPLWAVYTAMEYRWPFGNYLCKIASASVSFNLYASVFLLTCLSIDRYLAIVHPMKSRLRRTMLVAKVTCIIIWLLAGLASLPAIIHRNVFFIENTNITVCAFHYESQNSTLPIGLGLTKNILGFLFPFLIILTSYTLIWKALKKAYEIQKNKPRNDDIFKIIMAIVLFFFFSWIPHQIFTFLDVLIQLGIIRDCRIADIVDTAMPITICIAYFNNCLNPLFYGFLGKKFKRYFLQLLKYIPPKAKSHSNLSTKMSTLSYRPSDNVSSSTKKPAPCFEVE

[6] = molecular target: Heat shock protein HSP 90-alpha (Homo sapiens, UniProt P07900); test: Luminescence-based dose response biochemical high throughput screening assay for inhibitors of the Heat Shock Protein 90 (HSP90). [Related pubchem assays: 1831 (Summary AID.), 1846 (Confirmation screen.), 1789 (Primary screen.)]
[7] = molecular target: Neuropeptide Y receptor type 2 (Homo sapiens, UniProt P49146); format: functional, cell-based;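 further: HEK293 cells expressing the receptor and a CNG channel; stimulus was NPY near EC95 followed by isoproterenol to raise cAMP; antagonist potency measured as restoring cAMP signal that NPY suppresses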
BJ [8] = test: BJ-TERT-LT-ST fibroblast viability loss – cell-based, RAS-independent, luminescence, dose response (AID 1935); format: functional; conditions: Homo sapiens;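 further: BJ fibroblasts immortalized with TERT plus LT and ST oncogenes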
[9] = general mammalian cell viability loss – activator set, cherry-pick, cytotoxicity control for miR-122 modulator project, dose response (AID 720690); format: functional, cell-based;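 further: HEK293T human cells scored for general mammalian cytotoxicity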
[10] = molecular target: T4, Mitochondrial peptide methionine sulfoxide reductase (Bos taurus, UniProt P54149); test: Absorbance-based biochemical high throughput dose response assay for activators of Methionine sulfoxide reductase A (MsrA).; format: functional
T4 sequence (P54149 whole entry): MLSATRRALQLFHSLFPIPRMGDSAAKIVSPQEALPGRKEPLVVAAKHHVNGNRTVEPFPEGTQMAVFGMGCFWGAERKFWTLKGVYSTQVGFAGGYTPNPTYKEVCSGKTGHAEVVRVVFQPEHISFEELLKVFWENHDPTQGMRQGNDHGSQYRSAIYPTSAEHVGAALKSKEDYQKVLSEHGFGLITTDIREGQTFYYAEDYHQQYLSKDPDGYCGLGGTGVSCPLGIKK

[11] = luciferase reporter signal suppression in cells – H4 neuroglioma cells, luminescence, dose response (AID 1990); format: functional, cell-based
BJ [12] = test: BJ-TERT fibroblast viability loss – cell-based, RAS-independent, luminescence, dose response (AID 1933); format: functional; conditions: Homo sapiens
[13] = molecular target: Histone-lysine N-methyltransferase NSD2 (Homo sapiens, UniProt O96028); format: biochemical
[14] = Luminescence Cell-Based Dose Response HTS to Identify Inhibitors of 5'UTR Stem-Loop Driven Prion Protein mRNA Translation in H4 Neuroglioblastoma Cells. [Related pubchem assays: 1827 (Project Summary), 1813 (Primary HTS)]; format: functional
[15] = molecular target: Voltage-gated inwardly rectifying potassium channel KCNH2 (Homo sapiens, UniProt Q12809); test: concentration-dependent hERG rescue from blockers – cell-based, thallium flux, dose response (AID 2121); format: ADME
cells [16] = format: functional, cell-based
[17] = Counterscreen for AddAB inhibitors: absorbance-based bacterial cell-based high throughput dose response assay for inhibitors of bacterial viability. [Related pubchem assays (depositor defined):AID435030, AID449728, AID449731, AID488942, AID488955, AID488956]; format: functional
[18] = MIN6 cell viability loss – mouse insulinoma, cytotoxicity control, dose response (AID 2122); format: functional;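 further: confirmatory high-throughput counterscreen run to flag cytotoxic compounds; mouse MIN-6 beta cells carrying an insulin promoter eGFP reporter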
[19] = NIH-3T3 fibroblast cytotoxicity, dose response, cytotoxicity control, cell-based, fluorescence, Alamar Blue, secondary assay (AID 2327); format: functional;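 further: NIH-3T3 mouse fibroblasts cultured with fluconazole at 8 µg/mL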
cells [20] = format: functional, cell-based; remark: listed apart in the source

Chain of Histone-lysine N-methyltransferase NSD2 (O96028 whole entry): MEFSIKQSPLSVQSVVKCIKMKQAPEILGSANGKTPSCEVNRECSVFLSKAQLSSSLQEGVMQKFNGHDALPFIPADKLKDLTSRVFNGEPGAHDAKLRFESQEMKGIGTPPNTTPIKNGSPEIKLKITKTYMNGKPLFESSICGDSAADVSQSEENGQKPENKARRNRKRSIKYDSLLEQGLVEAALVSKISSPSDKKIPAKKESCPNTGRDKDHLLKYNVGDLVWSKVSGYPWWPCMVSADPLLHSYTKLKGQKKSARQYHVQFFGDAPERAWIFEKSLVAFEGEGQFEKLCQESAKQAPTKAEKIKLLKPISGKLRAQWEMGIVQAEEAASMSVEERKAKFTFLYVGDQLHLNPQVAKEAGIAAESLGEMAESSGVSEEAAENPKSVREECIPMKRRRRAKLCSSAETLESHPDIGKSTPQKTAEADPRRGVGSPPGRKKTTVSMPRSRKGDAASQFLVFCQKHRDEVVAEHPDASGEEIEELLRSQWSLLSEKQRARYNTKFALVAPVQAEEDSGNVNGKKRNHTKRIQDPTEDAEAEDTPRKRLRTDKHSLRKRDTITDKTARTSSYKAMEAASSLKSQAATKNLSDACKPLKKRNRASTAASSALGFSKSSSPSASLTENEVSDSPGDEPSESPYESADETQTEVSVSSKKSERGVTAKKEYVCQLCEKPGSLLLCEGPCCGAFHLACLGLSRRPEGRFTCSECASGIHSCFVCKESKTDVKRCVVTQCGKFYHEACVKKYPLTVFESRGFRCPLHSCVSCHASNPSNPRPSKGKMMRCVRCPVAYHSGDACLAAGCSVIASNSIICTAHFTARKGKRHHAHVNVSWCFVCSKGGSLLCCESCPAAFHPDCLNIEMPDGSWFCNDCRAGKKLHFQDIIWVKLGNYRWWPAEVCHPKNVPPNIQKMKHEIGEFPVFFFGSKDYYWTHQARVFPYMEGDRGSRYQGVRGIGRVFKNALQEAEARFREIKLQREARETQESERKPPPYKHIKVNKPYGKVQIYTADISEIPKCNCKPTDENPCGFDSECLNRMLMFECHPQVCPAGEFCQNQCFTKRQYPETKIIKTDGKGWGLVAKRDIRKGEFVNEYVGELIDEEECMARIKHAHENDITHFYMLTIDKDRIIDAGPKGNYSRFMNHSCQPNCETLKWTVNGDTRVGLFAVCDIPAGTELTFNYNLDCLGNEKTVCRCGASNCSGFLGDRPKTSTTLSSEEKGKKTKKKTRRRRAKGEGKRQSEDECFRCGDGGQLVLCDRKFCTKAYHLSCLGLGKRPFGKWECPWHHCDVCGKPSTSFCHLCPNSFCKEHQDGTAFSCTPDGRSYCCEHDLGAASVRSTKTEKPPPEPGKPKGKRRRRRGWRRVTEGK
Chain of Small ubiquitin-related modifier 2 (P61956 whole entry): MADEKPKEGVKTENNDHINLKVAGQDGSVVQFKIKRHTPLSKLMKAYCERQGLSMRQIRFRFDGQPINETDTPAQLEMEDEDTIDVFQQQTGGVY
Chain of Neuropeptide Y receptor type 2 (P49146 whole entry): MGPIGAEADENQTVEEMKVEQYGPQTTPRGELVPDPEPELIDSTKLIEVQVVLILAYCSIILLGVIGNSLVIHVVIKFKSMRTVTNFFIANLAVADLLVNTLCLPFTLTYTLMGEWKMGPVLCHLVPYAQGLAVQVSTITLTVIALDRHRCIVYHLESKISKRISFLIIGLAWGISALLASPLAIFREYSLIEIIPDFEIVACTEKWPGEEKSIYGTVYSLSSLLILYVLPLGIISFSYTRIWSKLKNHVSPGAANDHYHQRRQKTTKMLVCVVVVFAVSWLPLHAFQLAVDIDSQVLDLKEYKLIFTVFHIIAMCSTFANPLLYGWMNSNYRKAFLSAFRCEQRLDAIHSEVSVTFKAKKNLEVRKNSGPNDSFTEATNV
Chain of Voltage-gated inwardly rectifying potassium channel KCNH2 (Q12809 whole entry): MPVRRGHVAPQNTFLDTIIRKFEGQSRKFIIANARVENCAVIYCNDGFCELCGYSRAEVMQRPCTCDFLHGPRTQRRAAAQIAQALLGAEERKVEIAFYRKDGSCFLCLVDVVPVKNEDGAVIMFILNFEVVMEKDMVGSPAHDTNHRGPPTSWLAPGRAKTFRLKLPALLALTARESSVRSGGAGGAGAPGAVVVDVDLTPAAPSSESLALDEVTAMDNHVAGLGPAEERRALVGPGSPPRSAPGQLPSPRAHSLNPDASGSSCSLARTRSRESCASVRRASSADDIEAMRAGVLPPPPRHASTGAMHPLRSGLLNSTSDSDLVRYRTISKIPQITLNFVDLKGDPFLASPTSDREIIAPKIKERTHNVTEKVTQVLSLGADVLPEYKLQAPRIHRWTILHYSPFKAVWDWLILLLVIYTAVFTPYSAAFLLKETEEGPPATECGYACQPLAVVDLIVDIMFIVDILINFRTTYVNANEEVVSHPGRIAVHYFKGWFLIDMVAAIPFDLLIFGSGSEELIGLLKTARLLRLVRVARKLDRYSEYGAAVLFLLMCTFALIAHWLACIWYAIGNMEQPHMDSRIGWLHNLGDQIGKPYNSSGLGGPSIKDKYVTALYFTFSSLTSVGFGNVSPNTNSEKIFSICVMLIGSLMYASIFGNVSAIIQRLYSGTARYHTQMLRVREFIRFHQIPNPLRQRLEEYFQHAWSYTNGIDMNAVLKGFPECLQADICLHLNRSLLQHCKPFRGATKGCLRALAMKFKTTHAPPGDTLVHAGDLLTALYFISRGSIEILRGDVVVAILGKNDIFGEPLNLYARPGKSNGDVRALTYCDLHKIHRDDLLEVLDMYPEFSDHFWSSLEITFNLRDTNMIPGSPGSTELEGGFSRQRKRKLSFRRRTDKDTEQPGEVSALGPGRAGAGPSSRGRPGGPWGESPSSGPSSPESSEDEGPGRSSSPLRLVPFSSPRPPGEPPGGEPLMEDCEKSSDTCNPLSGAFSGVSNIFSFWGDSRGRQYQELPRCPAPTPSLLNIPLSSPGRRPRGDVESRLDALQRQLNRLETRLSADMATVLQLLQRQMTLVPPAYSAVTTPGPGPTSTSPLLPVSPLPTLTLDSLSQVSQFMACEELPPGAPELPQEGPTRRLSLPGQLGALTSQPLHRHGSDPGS
Chain of UDP-galactopyranose mutase (P9WIQ1 whole entry, the tested form may be a part): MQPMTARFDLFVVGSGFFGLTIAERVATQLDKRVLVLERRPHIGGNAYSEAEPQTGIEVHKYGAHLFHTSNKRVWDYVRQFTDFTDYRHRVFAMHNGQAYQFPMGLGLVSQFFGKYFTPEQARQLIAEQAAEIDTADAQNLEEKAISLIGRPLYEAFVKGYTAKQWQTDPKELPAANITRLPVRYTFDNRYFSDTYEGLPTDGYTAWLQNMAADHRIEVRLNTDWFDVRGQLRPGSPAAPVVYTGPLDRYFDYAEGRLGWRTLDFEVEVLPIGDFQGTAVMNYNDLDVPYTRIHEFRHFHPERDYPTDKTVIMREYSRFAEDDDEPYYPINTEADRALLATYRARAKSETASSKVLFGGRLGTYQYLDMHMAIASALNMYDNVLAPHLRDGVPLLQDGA
Chain of Small ubiquitin-related modifier 1 (P63165 whole entry): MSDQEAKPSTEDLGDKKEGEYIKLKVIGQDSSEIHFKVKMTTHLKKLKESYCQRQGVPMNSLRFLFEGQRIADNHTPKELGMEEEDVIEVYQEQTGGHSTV

## COc1cc(-c2ccc(Nc3ccccc3C(=O)O)c(OC)c2)ccc1Nc1ccccc1C(=O)O
[1]
  IC50: 2.34 µM (active)
[2]
  IC50: 3.9 µM (active)
Protein Tat
  IC50: 12.7 µM (inconclusive)
[3]
  IC50: 41.4 µM (active)

## COC(CNC(=O)c1ccc2c3c(onc13)-c1ccccc1C2=O)OC
[4]
  AC50: 2.79 µM (active)

## Cc1ccc2nc(/C(C#N)=C\c3ccc([N+](=O)[O-])o3)[nH]c2c1
[5]
  EC50: > 100 µM (inactive)

## O=C(O)c1ccc(NC2=C/C(=N/S(=O)(=O)c3ccccc3)c3ccccc3C2=O)cc1
[6]
  IC50: 0.967 µM (active)

## Nc1ccc2c(c1)C(=O)C(=O)c1ccccc1-2
[7]
  IC50: 4.25 µM (active)
BJ [8]
  EC50: 3.12 µM (inconclusive)
[9]
  AC50: 6.54 µM (active)
[10]
  EC50: 9.09 µM (active)
[11]
  EC50: > 120 µM (not active)
BJ [12]
  EC50: 2.58 µM (inconclusive)
[13]
  AC50: 0.273 µM (active)
[14]
  EC50: 8.68 µM (inconclusive)
[15]
  EC50: 1.38 µM (active)

## CCCC(=O)NC(c1ccccc1OC)c1ccc2cccnc2c1O (stereo unspecified)
Cells [16]
  EC50: > 350 µM (not active)
[17]
  IC50: > 119 µM (inactive)
[18]
  IC50: 1.91 µM (active)
[19]
  EC50: 28.7 µM (active)
Cells [20]
  EC50: 7.86 µM (active)
